Source: patent US10144715B2, “Piperazine derivatives as liver X receptor modulators” (priority 2014, dated 2018)
Like-named read-outs stand apart in the source and are kept apart here.

Assays:
[1] = molecular target: T1, Gal4 DNA binding domain fused to the LBD of LXRα in HEK293 cells (Homo sapiens (Human), UniProt Q13133); assay: LXR luciferase transcriptional reporter gene assay, agonist mode, LXRα; type: cell-based; conditions: for EC50: read-out: Cell LXRα EC50
[2] = molecular target: T1, Gal4 DNA binding domain fused to the LBD of LXRα in HEK293 cells; assay: LXR luciferase transcriptional reporter gene assay, antagonist mode (200 nM T0901317), LXRα; type: cell-based; conditions: for IC50: read-out: Cell LXRα IC50
LXR α LBD protein [3] = molecular target: T2, LXR α LBD protein (Homo sapiens (Human), UniProt Q13133); assay: LXR α radioligand binding assay (SPA, competition with [3H]TO901317); conditions: read-out: LXRα Binding Ki
LXR α LBD protein [4] = molecular target: T2, LXR α LBD protein; assay: Human LXRα coactivator recruitment FRET assay, agonist mode; type: biochemical
Procedure, shortened: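 LXRα- or LXRβ-LBD at 10 nM (2×) mixed with compound in DMSO, then fluorescein-SRC2-3 peptide 200 nM and Tb-anti-GST antibody 20 nM (4×) added; 2 h at rt. Time-resolved FRET read, 100 µs delay, 200 µs window; EC50 from four-parameter fit of percent control.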

LXR β LBD protein = LXR β LBD protein (Homo sapiens (Human), UniProt P55055); assay: biochemical; type: binding; conditions: Biological Test Example 1; read-out: LXRβ Binding Ki
[5] = molecular target: Gal4 DNA binding domain fused to the LBD of LXRβ in HEK293 cells (Homo sapiens (Human), UniProt P55055); assay: cell-based; conditions: Biological Test Example 2, agonist mode
[6] = antagonist mode, 200 nM T0901317, HEK293 reporter gene assay
[7] = Biological Test Example 3, agonist mode

T2 sequence (Q13133 209-447): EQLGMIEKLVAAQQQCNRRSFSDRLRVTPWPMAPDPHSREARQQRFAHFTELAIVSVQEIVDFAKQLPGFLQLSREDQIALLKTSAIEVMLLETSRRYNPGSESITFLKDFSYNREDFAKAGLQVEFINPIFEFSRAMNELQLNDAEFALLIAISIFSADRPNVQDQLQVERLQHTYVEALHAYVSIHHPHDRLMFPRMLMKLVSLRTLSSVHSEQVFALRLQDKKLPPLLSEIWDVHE
T1 sequence (Q13133 209-447): as above
Chain of Gal4 DNA binding domain fused to the LBD of LXRβ in HEK293 cells (P55055 222-460 limits assumed): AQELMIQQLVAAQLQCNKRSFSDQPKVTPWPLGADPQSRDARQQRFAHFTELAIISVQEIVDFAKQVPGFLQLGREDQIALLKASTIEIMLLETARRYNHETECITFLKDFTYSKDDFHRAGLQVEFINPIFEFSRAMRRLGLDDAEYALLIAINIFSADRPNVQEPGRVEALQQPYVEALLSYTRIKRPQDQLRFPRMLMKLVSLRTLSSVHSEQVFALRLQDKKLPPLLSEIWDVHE
Chain of LXR β LBD protein (P55055 222-460 limits assumed): as above

CS(=O)(=O)c1cccc(N2CCN(C[C@@H]3CCC[C@@H](C(F)(F)F)C3)[C@@H](c3ccc(F)cc3)C2)c1 (single isomer, unassigned) [48-39]
EC50 ([1]; agonist mode): > 20 µM | Cell LXRα efficacy [2]: 78 (86) % | IC50 [2, 6]: 0.078 µM

CS(=O)(=O)c1cccc(N2CCN(C[C@@H]3CCC[C@H](C(F)(F)F)C3)[C@@H](c3ccc(F)cc3)C2)c1 (single isomer, unassigned) [48-41]
Ki (LXR α LBD protein [3]): 0.196 µM | Cell LXRα efficacy [1]: 1459 (7) % | EC50 ([1]; agonist mode): 1.46 µM | Cell LXRα efficacy [2]: 421 (83) % | IC50 [2, 6]: 0.421 µM

CS(=O)(=O)c1cccc(N2CCN(CC3CCN(CC(F)(F)F)CC3)[C@@H](c3ccccc3)C2)c1 (single isomer, unassigned) [48-52]
Cell LXRα efficacy [1]: 736 (30) % | EC50 ([1]; Biological Test Example 2, agonist mode): 0.736 µM | Cell LXRα efficacy [2]: 4773 (89) % | IC50 [2, 6]: 4.77 µM | EC50 (LXR α LBD protein [4]; [7]): 1.06 µM | FRET LXRα efficacy (LXR α LBD protein [4]; [7]): 32%

CS(=O)(=O)c1cccc(N2CCN(C[C@H]3CC[C@@]4(CC3)CC4(F)F)[C@@H](c3ccccc3)C2)c1 (single isomer, unassigned) [48-69]
Ki (LXR α LBD protein [3]): 0.111 µM | Ki (LXR β LBD protein): 0.014 µM | Cell LXRα efficacy [1]: 425 (69) % | EC50 [1]: 0.425 µM | Cell LXRβ efficacy [5]: 43% | EC50 ([5]; read-out: Cell LXRβ EC50): 0.151 µM | IC50 [2]: > 10 µM

CC(C)C[C@@H]1CN(c2cccc(S(C)(=O)=O)c2)CCN1C(=O)OC(C)(C)C [1-3, tert-butyl (R)-2-isobutyl-4-(3-(methylsulfonyl)phenyl)piperazine-1-carboxylate]
Cell LXRα efficacy [1]: 955 (34) % | EC50 ([1]; agonist mode): 0.955 µM | IC50 [2, 6]: 2.87 µM | EC50 (LXR α LBD protein [4]; agonist mode): 1.68 µM | FRET LXRα efficacy (LXR α LBD protein [4]; agonist mode): 43%

CC(C)(C)OC(=O)N1CCN(c2cccc(S(C)(=O)=O)c2)C[C@H]1Cc1ccccc1 [1-8, tert-butyl (R)-2-benzyl-4-(3-(methylsulfonyl)phenyl)piperazine-1-carboxylate]
Cell LXRα efficacy [1]: 1146 (34) % | EC50 ([1]; agonist mode): 1.15 µM | IC50 [2, 6]: 4.71 µM | EC50 (LXR α LBD protein [4]; agonist mode): 0.105 µM | FRET LXRα efficacy (LXR α LBD protein [4]; agonist mode): 18%

CC(C)[C@@H]1CN(c2ccc(C(N)=O)c(S(C)(=O)=O)c2)CCN1c1nccc(C(F)(F)F)n1 [4-2, (R)-4-(3-isopropyl-4-(4-(trifluoromethyl)pyrimidin-2-yl)piperazin-1-yl)-2-(methylsulfonyl)benzamide]
Cell LXRα efficacy [1]: 1172 (71) % | EC50 ([1]; agonist mode): 1.17 µM | IC50 [2, 6]: > 10 µM | EC50 (LXR α LBD protein [4]; agonist mode): 0.293 µM | FRET LXRα efficacy (LXR α LBD protein [4]; agonist mode): 87%

CC(C)[C@@H]1CN(c2cccc(S(C)(=O)=O)c2)CCN1C(=O)OCC(C)(C)C [5-6, neopentyl (R)-2-isopropyl-4-(3-(methylsulfonyl)phenyl)piperazine-1-carboxylate]
Cell LXRα efficacy [1]: 1424 (48) % | EC50 ([1]; agonist mode): 1.42 µM | IC50 [2, 6]: 9.46 µM | EC50 (LXR α LBD protein [4]; agonist mode): 0.234 µM | FRET LXRα efficacy (LXR α LBD protein [4]; agonist mode): 52%

CC(C)COC(=O)N1CCN(c2cccc(S(C)(=O)=O)c2)C[C@H]1C(C)C [5-7, isobutyl (R)-2-isopropyl-4-(3-(methylsulfonyl)phenyl)piperazine-1-carboxylate]
Cell LXRα efficacy [1]: 1919 (44) % | EC50 ([1]; agonist mode): 1.92 µM | IC50 [2, 6]: 5.12 µM | EC50 (LXR α LBD protein [4]; agonist mode): 0.34 µM | FRET LXRα efficacy (LXR α LBD protein [4]; agonist mode): 58%

CC(C)[C@@H]1CN(c2cccc(S(C)(=O)=O)c2)CCN1c1ncccn1 [7-2, (R)-2-(2-isopropyl-4-(3-(methylsulfonyl)phenyl)piperazin-1-yl)pyrimidine]
EC50 ([1]; agonist mode): > 20 µM | IC50 [2, 6]: 5.5 µM | EC50 (LXR α LBD protein [4]; agonist mode): 1.03 µM | FRET LXRα efficacy (LXR α LBD protein [4]; agonist mode): 23%

CC(C)[C@@H]1CN(c2ccc(C#N)c(S(C)(=O)=O)c2)CCN1c1nccc(C(F)(F)F)n1 [7-17, (R)-4-(3-isopropyl-4-(4-(trifluoromethyl)pyrimidin-2-yl)piperazin-1-yl)-2-(methylsulfonyl)benzonitrile]
Cell LXRα efficacy [1]: 1115 (69) % | EC50 ([1]; agonist mode): 1.11 µM | IC50 [2, 6]: 6.03 µM

Cc1nc(N2CCN(c3ccc(F)c(S(C)(=O)=O)c3)C[C@H]2C(C)C)ncc1F [7-23, (R)-5-fluoro-2-(4-(4-fluoro-3-(methylsulfonyl)phenyl)-2-isopropylpiperazin-1-yl)-4-methylpyrimidine]
Cell LXRα efficacy [1]: 1531 (52) % | EC50 ([1]; agonist mode): 1.53 µM | IC50 [2, 6]: > 10 µM | EC50 (LXR α LBD protein [4]; agonist mode): 1.13 µM | FRET LXRα efficacy (LXR α LBD protein [4]; agonist mode): 73%

CC(C)[C@@H]1CN(c2cccc(S(C)(=O)=O)c2)CCN1c1ccnc(C(F)(F)F)n1 [7-50, (R)-4-(2-isopropyl-4-(3-(methylsulfonyl)phenyl)piperazin-1-yl)-2-(trifluoromethyl)pyrimidine]
Cell LXRα efficacy [1]: 2029 (50) % | EC50 ([1]; agonist mode): 2.03 µM | Cell LXRα efficacy [2]: 4587 (78) % | IC50 [2, 6]: 4.59 µM | EC50 (LXR α LBD protein [4]; agonist mode): 0.298 µM | FRET LXRα efficacy (LXR α LBD protein [4]; agonist mode): 59%

COCCN(C)Cc1cnc(N2CCN(c3ccc(F)c(S(C)(=O)=O)c3)C[C@H]2C(C)C)nc1C(F)(F)F [15-10, (R)-N-((2-(4-(4-fluoro-3-(methylsulfonyl)phenyl)-2-isopropylpiperazin-1-yl)-4-(trifluoromethyl)pyrimidin-5-yl)methyl)-2-methoxy-N-methylethan-1-amine]
Ki (LXR α LBD protein [3]): 0.948 µM | Cell LXRα efficacy [1]: 5353 (16) % | EC50 ([1]; agonist mode): 5.35 µM | IC50 [2, 6]: 1.62 µM

CS(=O)(=O)c1cccc(N2CCN(Cc3ccc(C(F)(F)F)c(Cl)c3)C(C3CCCCC3)C2)c1 (stereo not drawn) [46-27, 1-(3-chloro-4-(trifluoromethyl)benzyl)-2-cyclohexyl-4-(3-(methylsulfonyl)phenyl)piperazine]
Cell LXRα efficacy [1]: 1100 (77) % | EC50 ([1]; agonist mode): 1.1 µM | IC50 [2, 6]: > 10 µM | EC50 (LXR α LBD protein [4]; agonist mode): 0.157 µM | FRET LXRα efficacy (LXR α LBD protein [4]; agonist mode): 79%

CS(=O)(=O)c1cccc(N2CCN(C[C@H]3CCC[C@H](C(F)(F)F)C3)[C@@H](c3ccc(F)cc3)C2)c1 [48-40, (S)-2-(4-fluorophenyl)-4-(3-(methylsulfonyl)phenyl)-1-(((1S,3S)-3-(trifluoromethyl)cyclohexyl)methyl)piperazine]
Ki (LXR α LBD protein [3]): 2.48 µM | EC50 ([1]; agonist mode): > 20 µM | IC50 [2, 6]: > 10 µM

CC(C)[C@@H]1CN(c2cccc(S(C)(=O)=O)c2)CCN1c1ncc(Cl)cn1 [Cpd No 7-4, (R)-5-chloro-2-(2-isopropyl-4-(3-(methylsulfonyl)phenyl)piperazin-1-yl)pyrimidine]
Cell LXRα efficacy [1]: 1219 (70) % | EC50 ([1]; agonist mode): 1.22 µM | IC50 [2, 6]: > 10 µM | EC50 (LXR α LBD protein [4]; agonist mode): 0.281 µM | FRET LXRα efficacy (LXR α LBD protein [4]; agonist mode): 76%

CC(C)[C@@H]1CN(c2cccc(S(C)(=O)=O)c2)CCN1c1ccc(C(F)(F)F)cn1 [Cpd No 7-35, (R)-2-isopropyl-4-(3-(methylsulfonyl)phenyl)-1-(5-(trifluoromethyl)pyridin-2-yl)piperazine]
Cell LXRα efficacy [1]: 138 (97) % | EC50 ([1]; agonist mode): 0.138 µM | IC50 [2, 6]: > 10 µM | EC50 (LXR α LBD protein [4]; agonist mode): 0.013 µM | FRET LXRα efficacy (LXR α LBD protein [4]; agonist mode): 79%

CC(C)[C@@H]1CN(c2ccc(F)c(S(C)(=O)=O)c2)CCN1c1ncc(Cc2ccc(C(=O)O)cc2)c(C(F)(F)F)n1 [Cpd No 32-1, (R)-4-((2-(4-(4-fluoro-3-(methylsulfonyl)phenyl)-2-isopropylpiperazin-1-yl)-4-(trifluoromethyl)pyrimidin-5-yl)methyl)benzoic acid]
Ki (LXR α LBD protein [3]): 0.197 µM | Cell LXRα efficacy [1]: 4667 (6) % | EC50 [1]: 4.67 µM | IC50 [2]: 0.544 µM
